Reference: patent US9517245B2, “Sorafenib-microRNA combination therapy for liver cancer” (Mirna Therapeutics, Inc., priority 2014, dated 2016)
Read-outs that look alike come from different tables or passages of the source. One block for each compound: values may come before it.

Assays:
[1] = tested on: four liver cancer cell lines (Hep3b, HepG2, C3A, Huh7); assay: combination studies in four liver cancer cell lines (overall synergy statements); assay type: cell-based; conditions: combination with miRNA mimic instead of sorafenib; data not shown
[2] = cited from earlier work
HepG2 liver cancer cells = assay: sorafenib dose-effect, AlamarBlue cell proliferation; assay type: cell-based; conditions: Homo sapiens, 72 h, AlamarBlue 3 days post drug treatment, range from two or three experiments
Procedure: (§1) FIG. 2 illustrates dose-effect curves of sorafenib in liver cancer cells. Cells were seed in 96-well plate at 2000 cells per well. Three days after seeding the cells, sorafenib in a serial dilution from (0.1-100 μM) was added to the medium. Cell proliferation or percent inhibition was determined by AlamarBlue 3 days post drug treatment. Data were normalized to cells treated with sorafenib solvent (1% DMSO final concentration).
(§2) Sorafenib dose response curves were established in each cell line, and the cell proliferation was determined using AlamarBlue (Invitrogen) 3 days post drug treatment. Nonlinear regression and IC50 values were calculated using the GraphPad (Prism) software.
as §1, with “treatment, and IC50 values” for “treatment. Data”, “calculated using the GraphPad software.” for “normalized to cells treated with sorafenib solvent (1% DMSO final concentration).”

Huh7 liver cancer cells = assay: as above; assay type: cell-based; conditions: Homo sapiens, Huh-7, 72 h, AlamarBlue 3 days post drug treatment, range from two or three experiments
Procedure: as §1, §2
as §1, with “treatment, and IC50 values” for “treatment. Data”, “calculated using the GraphPad software.” for “normalized to cells treated with sorafenib solvent (1% DMSO final concentration).”

C3A liver cancer cells = assay: as above; assay type: cell-based; conditions: 72 h, AlamarBlue 3 days post drug treatment, range from two or three experiments
Procedure: as §1, §2
as §1, with “treatment, and IC50 values” for “treatment. Data”, “calculated using the GraphPad software.” for “normalized to cells treated with sorafenib solvent (1% DMSO final concentration).”

Hep3b liver cancer cells = assay: as above; assay type: cell-based; conditions: Homo sapiens, 72 h, AlamarBlue 3 days post drug treatment, range from two or three experiments
Procedure: as §1, §2
as §1, with “treatment, and IC50 values” for “treatment. Data”, “calculated using the GraphPad software.” for “normalized to cells treated with sorafenib solvent (1% DMSO final concentration).”

Structure (SMILES): O=c1[nH]cc(F)c(=O)[nH]1 [5-FU]
synergy in combinations with other chemotherapeutic agents [1]: synergy was not identified

Structure (SMILES): CNC(=O)c1cc(Oc2ccc(NC(=O)Nc3ccc(Cl)c(C(F)(F)F)c3)cc2)ccn1.Cc1ccc(S(=O)(=O)O)cc1 [Sorafenib tosylate, 4-(4-{3-[4-Chloro-3 (trifluoromethyl)phenyl]ureido}phenoxy) N-methylpyridine-2-carboxamide 4-methylbenzenesulfonate]
solubility ([2]; PEG 400): soluble
solubility ([2]; aqueous media): practically insoluble
solubility ([2]; ethanol): slightly soluble

IC50 (HepG2 liver cancer cells): 6.7 to 9 µM
IC50 (Huh7 liver cancer cells): 13.1 to 16 µM
IC50 (C3A liver cancer cells): 10.7 to 11.8 µM
IC50 (Hep3b liver cancer cells): 5.4 to 12.7 µM
Structure (SMILES): CNC(=O)c1cc(Oc2ccc(NC(=O)Nc3ccc(Cl)c(C(F)(F)F)c3)cc2)ccn1 [Sorafenib]

Structure (SMILES): COc1cccc2c1C(=O)c1c(O)c3c(c(O)c1C2=O)C[C@@](O)(C(=O)CO)C[C@@H]3O[C@H]1C[C@H](N)[C@H](O)[C@H](C)O1 [doxorubicin]
synergy in combinations with other chemotherapeutic agents [1]: synergy was not identified
